Test results reported in patent US20100273804A1, “PYRIDAZINE DERIVATIVES USEFUL AS FUNGICIDES AND FOR THE TREATMENT OF CANCER” (SYNGENTA CROP PROTECTION, INC., priority 2007, published 2010).

Tests used:
Botrytis cinerea = assay: Botrytis cinerea/tomato/preventive (action against Botrytis on tomato); assay type: in vivo; conditions: 72 h, tomato plants cv. Roter Gnom, preventive spray, assessed 3 days after inoculation, read-out: inhibit fungal infestation
Experimental: (§1) Botrytis cinerea/tomato/preventive (Action against Botrytis on tomato) 4 weeks old tomato plants cv. Roter Gnom are treated with the formulated test compound in a spray chamber. Two days after application tomato plants are inoculated by spraying a spore suspension on the test plants. After an incubation period of 3 days at 20° C. and 95% r. h. in a greenhouse the disease incidence is assessed.

Alternaria solani = assay: Alternaria solani/tomato/preventive (action against Alternaria on tomato); assay type: in vivo; conditions: 96 h, tomato plants cv. Roter Gnom, preventive spray, assessed 4 days after inoculation, read-out: inhibit fungal infestation
Experimental: as §1, with “Alternaria solani/Tomato/Preventive” for “Botrytis cinerea/tomato/preventive”, “Against Alternaria” for “against Botrytis”, “Tomato)” for “tomato)”, “4” for “3”, “22° C./18°” for “20°”, “r.h.” for “r. h.”

Puccinia recondita = assay: Puccinia recondita/wheat/preventive (action against brown rust on wheat); assay type: in vivo; conditions: 264 h, wheat plants cv. Arina, preventive spray, assessed 11 days after inoculation, read-out: inhibit fungal infestation
Experimental: Puccinia recondita/Wheat/Preventive (Action Against Brown Rust on Wheat) 1 week old wheat plants cv. Arina are treated with the formulated test compound in a spray chamber. One day after application wheat plants are inoculated by spraying a spore suspension ([…] uredospores/ml) on the test plants. After an incubation period of 1 day at 20° C. and 95% r.h. plants are kept for 10 days 20° C./18° C. (day/night) and 60% r.h. in a greenhouse. The disease incidence is assessed 11 days after inoculation.

[1] = tested on: Maqnaporthe qrisea (Pyricularia oryzae); assay: whole plant or invertebrate; assay type: in vivo; conditions: 144 h, read-out: inhibit fungal infestation
Uncinula necator = assay: Uncinula necator/grape/preventive (action against powdery mildew on grape); assay type: in vivo; conditions: Erysiphe necator, 168 h, grape seedlings cv. Gutedel, preventive spray, assessed 7 days after inoculation, read-out: inhibit fungal infestation
Experimental: Uncinula necator/Grape/Preventive (Action Against Powdery Mildew on Grape) 5 weeks old grape seedlings cv. Gutedel are treated with the formulated test compound in a spray chamber. One day after application grape plants are inoculated by shaking plants infected with grape powdery mildew above the test plants. After an incubation period of 7 days at 24° C./22° C. and 70% r.h. under a light regime of 14/10 h (light/dark) the disease incidence is assessed.

Septoria tritici = assay: Septoria tritici/wheat/preventive (action against Septoria leaf spot on wheat); assay type: in vivo; conditions: Zymoseptoria tritici, wheat plants cv. Riband, preventive spray, assessed 16-18 days after inoculation, read-out: inhibits fungal infestation
Experimental: Septoria tritici/Wheat/Preventive (Action Against Septoria Leaf Spot on Wheat) 2 weeks old wheat plants cv. Riband are treated with the formulated test compound in a spray chamber. One day after application wheat plants are inoculated by spraying a spore suspension (10^6 conidia/ml) on the test plants. After an incubation period of 1 day at 22° C./21° C. and 95% r.h. plants are kept at 22° C./21° C. and 70% r.h. in a greenhouse. The disease incidence is assessed 16-18 days after inoculation.

[2] = tested on: Pyrenophora teres (Helminthosporium teres); assay: Pyrenophora teres (Helminthosporium teres)/barley/preventive (action against net blotch on barley); assay type: in vivo; conditions: 96 h, barley plants cv. Regina, preventive spray, assessed 4 days after inoculation, read-out: inhibit fungal infestation
Experimental: Pyrenophora teres (Helminthosporium teres)/Barley/Preventive (Action Against Net Blotch on Barley) 1-week-old barley plants cv. Regina are treated with the formulated test compound in a spray chamber. Two days after application barley plants are inoculated by spraying a spore suspension (2.6×10^4 conidia/ml) on the test plants. After an incubation period of 4 days at 20° C. and 95% r.h. the disease incidence is assessed.

Row | SMILES | melting point [°C] | inhibition at 200 ppm (Botrytis cinerea) [%] | inhibition at 200 ppm (Alternaria solani) [%] | inhibition at 200 ppm (Puccinia recondita) [%] | inhibition at 200 ppm [1] [%] | inhibition at 200 ppm (Uncinula necator) [%] | inhibition at 200 ppm (Septoria tritici) [%] | inhibition at 200 ppm [2] [%]
1 | Cc1n[nH]c(=O)c(-c2c(F)cc(F)cc2F)c1Cc1ccc(Cl)cc1 [I.k.157, 5-(4-chloro-benzyl)-6-methyl-4-(2,4,6-trifluoro-phenyl)-2H-pyridazin-3-one] | 212 to 215 | – | – | – | – | – | – | –
2 | Cc1nnc(Cl)c(-c2c(F)cc(F)cc2F)c1Cc1ccc(Cl)cc1 [I.k.158, 3-chloro-5-(4-chloro-benzyl)-6-methyl-4-(2,4,6-trifluoro-phenyl)-pyridazine] | – | ≥ 80 | ≥ 80 | ≥ 80 | ≥ 80 | ≥ 80 | ≥ 80 | ≥ 80
